Peptide text beside a SMILES is read from it. * marks the point of attachment. Cbz = O=C(OCc1ccccc1)*
Experiments:
Type in all cases: cell-based, human
HeLa H2B-GFP cells [1] = assay: Live cell imaging of mitotic duration and cell fate
Experimental: Detailed siRNA transfection and drug treatment schemes are described in supplemental experimental procedures. HeLa H2B-GFP cells were plated in DMEM with 10% FBS at 20% confluence. […] Live cell imaging was performed at 12 minute intervals on a Nikon TE2000E PFS inverted microscope fitted with an incubation chamber maintained at 37° C. and supplied with 5% CO2. Cell division was tracked by manual inspection of movies, and mitotic duration was measured as the time between the first frame of chromosome condensation and the frame of chromosome segregation (anaphase), decondensation (mitotic exit without anaphase) or cell death (chromosomes shrinking to a small bright dot).
The imaging plate was mounted onto a motorized stage (Prior ProScan II) on a Nikon TE2000E PFS inverted microscope fitted with an incubation chamber maintained at 37° C. and supplied with 5% CO2. A 20× Plan Apo 0.75 NA or 40× Plan Fluor 0.75 NA objective lens was used as indicated and images were collected with 2×2 binning. […] TIFF files of each image were exported from Elements and used to build stacks and Quicktime movies with Metamorph imaging software (Molecular Devices). For manual analysis, mitotic duration is counted as the time between the first frame of chromosome condensation and the frame of chromosome segregation (anaphase) or decondensation (mitotic exit in the presence of nocodazole) or cell death (chromosomes shrinking to a small bright dot).
HeLa H2B-GFP cells were plated in a 24-well plate in DMEM 10% FBS at 20% confluence one day prior to experiment and synchronized by double thymidine block as described above. […] Live cell imaging was set up as described above.
HeLa H2B-GFP cells were plated in a 24-well plate in DMEM+10% FBS at 20% confluence one day prior to the experiment and synchronized by double thymidine block as described above. The cells were released from the first thymidine block into 200 μl OptiMem without FBS. Transfection was performed immediately after the first thymidine release. […] The two mixtures were left at room temperature for 5 min before being mixed together and incubated for additional 20 min and then added to the cells to a final volume of 250 μl. 4 h after transfection, 250 μl of DMEM+20% FBS were added to cells.
HeLa H2B-GFP cells were plated in glass-bottom 24-well plates at 20% confluence one day prior to the experiment and synchronized by double thymidine block as described above. […] Cells were treated with 100 nM Hesperadin or DMSO 8 h after release from the second thymidine block and live cell imaging was set up as described above.
HeLa H2B-GFP cells were plated in a 24-well plate in DMEM+10% FBS at 20% confluence one day prior to experiment and synchronized by double thymidine block as synchronized above. […] Live cell imaging was set up as described above.
HeLa H2B-GFP cells were plated in a 24-well plate in DMEM+10% FBS at 20% confluence one day prior to experiment and synchronized by double thymidine block as described above. […] Untreated cells were used as the control. Live cell imaging was set up as described above. […] Alternatively, at 10 h after release from the second block, 10 μM MG132 with or without 25 μg/ml cycloheximide was added to the cells. […] Live cell imaging was set up as described above.
HeLa H2B-GFP cells were plated in a 24-well plate in DMEM+10% FBS at 20% confluence one day prior to experiment and synchronized by double thymidine block as described above. Mad2 siRNA transfection was performed as described above. At 10 h after release from the second block, 10 μM MG132 with or without 25 μg/ml cycloheximide was added to the cells. Live cell imaging was set up as described above. Manual analysis was focused only on cells that entered mitosis after MG132 addition.
Live cell imaging experiments. […] Nocodazole, taxol, proTAME, cyclinal and hesperadin were added to cells at 8 h after release. MG132 was added to cells at 10 h after release to allow mitotic entry.

HeLa cells = assay: Immunofluorescence of mitotic spindle and interkinetochore distance; conditions: asynchronous HeLa, 2 h; 12 μM proTAME; nocodazole or taxol
Experimental: HeLa cells grown in DMEM+10% FBS were plated on 25 mm glass coverslips in a E-well dish at a density of 130,000/ml×3 ml 48 h prior to treatment. They were then treated with 0.06% DMSO, 12 μM proTAME, 300 nM nocodazole or 300 nM taxol for 2 h. The cells were washed twice with PBS and fixed with 3% paraformaldehyde for 15 min. The cells were then washed with PBS and permeabilized with PBS plus 0.5% Triton X-100 for 2 min. The cells were then washed with PBS and blocked with PBS plus 5% FBS for 1 h. CREST antisera diluted 1:50 into PBS was added to the cells and incubated at room temperature for 1 h. The cells were washed with PBS and incubated with 1:1000 anti-human-Alexa 568 (Invitrogen, A21090) and 1:100 anti-α-tubulin-FITC for 1 h. The cells were then washed with PBS and the nuclei were stained with 1 μg/ml Hoechst 33342. The cover slips were mounted in 0.1M N-propylgallate in 9:1 glycerol:PBS. Z-series images were taken on a Nikon TE2000 microscope with PerkinElmer spinning disk confocal device. Maximal Z-projection images of individual cells were made by Image J. To measure interkinetochore distances, a straight line was drawn across a kinetochore pair in the same confocal plane and pixel intensities along the line were plotted so that each kinetochore would be represented by a peak on the line. The interkinetochore distance was calculated as the distance between the peaks. Fifty-five kinetochore pairs from 5 cells treated with DMSO or proTAME were measured and the p-value was calculated with a paired student test.

HeLa H2B-GFP cells [2] = assay: Chromosome congression analysis
Experimental: HeLa H2B-GFP cells were plated in 35 mm glass-bottom dishes (MatTek) in DMEM+10% FBS at 20% confluence one day prior to the experiment and synchronized by double thymidine block as described above. Drugs were added as follows to a final volume of 3 ml from 2× concentrated preparation in culture medium. DMSO (0.06%), proTAME (3 and 12 μM) or 10 nM Nocodazole were added 8 h after release from the second block, while MG132 (10 μM) was added at 10 h. H2B-GFP was imaged for 4 hrs every 3 min at 40× magnification as described above.

[3] = Fig 6C, compounds 8 h after release, 12 μM proTAME, 300 nM nocodazole, 150 nM taxol, 100 nM hesperadin
[4] = Fig 6D, Cdc27 siRNA, 100 nM hesperadin
[5] = Fig 6D, UbcH10 siRNA, 100 nM hesperadin
[6] = Fig 6D, control siRNA, 100 nM hesperadin
[7] = Fig 8A, 12 μM proTAME, 300 nM nocodazole or 150 nM taxol, ± 25 μg/ml cycloheximide 4 h later
[8] = Fig 7A, control siRNA, 3 μM MG132
[9] = Fig 7B, MG132 3 μM, 100 nM hesperadin, 12 μM proTAME
[10] = Fig 7D, MG132 10 μM, 100 nM hesperadin, 12 μM proTAME
[11] = Fig 8B, MAD2 siRNA, MG132 10 μM ± 25 μg/ml cycloheximide
[12] = Fig 8B, control siRNA, MG132 10 μM ± 25 μg/ml cycloheximide
[13] = Fig S4C, proTAME 12 μM, MG132 10 μM, nocodazole 10 nM

## CCS(=O)(=O)Nc1ccc2c(c1)/C(=C(/Nc1ccc(CN3CCCCC3)cc1)c1ccccc1)C(=O)N2 [Hesperadin, reference compound]
HeLa H2B-GFP cells [1]; [3]
  Average mitotic duration: 98.7 min
  Median mitotic duration: 96 min
HeLa H2B-GFP cells [1]; [4]
  Average mitotic duration: 131.8 min
  Median mitotic duration: 132 min
HeLa H2B-GFP cells [1]; [5]
  Average mitotic duration: 115.8 min
  Median mitotic duration: 108 min
HeLa H2B-GFP cells [1]; [6]
  Average mitotic duration: 115.6 min
  Median mitotic duration: 120 min
HeLa H2B-GFP cells [1]; co-treated with taxol
  Mitotic duration in the presence of taxol: ~2 h

## CC(=O)O[C@H]1C(=O)[C@@]2(C)[C@H]([C@H](OC(=O)c3ccccc3)[C@]3(O)C[C@H](OC(=O)[C@H](O)[C@@H](NC(=O)c4ccccc4)c4ccccc4)C(C)=C1C3(C)C)[C@]1(OC(C)=O)CO[C@@H]1C[C@@H]2O [Taxol, reference compound]
HeLa H2B-GFP cells [1]; [3]
  Average mitotic duration: 1946.9 min
  Median mitotic duration: 2070 min
HeLa H2B-GFP cells [1]; [7]
  Average mitotic duration: 1557.6 min
  Median mitotic duration: 1602 min
HeLa H2B-GFP cells [1]; unsynchronized HeLa H2B-GFP, taxol 10 nM, proTAME 3 μM, control 60 min
  Median mitotic duration: 414 min
HeLa cells
  Effect on mitotic spindle: strongly perturbed spindle organization

## CC(C)C[C@@H](C=O)NC(=O)[C@H](CC(C)C)NC(=O)[C@H](CC(C)C)NC(=O)OCc1ccccc1 [MG132, reference compound] (Cbz-Leu-Leu-Leu-aldehyde)
HeLa H2B-GFP cells [1]; 3 μM
  Median duration of mitotic arrest: 15 h
HeLa H2B-GFP cells [1]; 3 μM, 30 h experiment
  Cells that exited mitosis: 10%
HeLa H2B-GFP cells [1]; 3 μM, cells depleted of Mad2 by RNAi
  Cells that exited mitosis: 50%
HeLa H2B-GFP cells [1]; 100 μM roscovitine at 12 h after release
  Response of arrested cells to roscovitine: showed complete resistance to roscovitine
HeLa H2B-GFP cells [1]; Fig 7A, MAD2 siRNA, 3 μM MG132
  Average mitotic duration: 605.3 min
  Median mitotic duration: 667.5 min
HeLa H2B-GFP cells [1]; [8]
  Average mitotic duration: 830.1 min
  Median mitotic duration: 840 min
HeLa H2B-GFP cells [1]; [9]
  Average mitotic duration: 1549.9 min
  Median mitotic duration: 1440 min
HeLa H2B-GFP cells [1]; [10]
  Average mitotic duration: 2169.8 min
  Median mitotic duration: 2172 min
HeLa H2B-GFP cells [1]; [11]
  Average mitotic duration: 1755.2 min
  Median mitotic duration: 1716 min
HeLa H2B-GFP cells [1]; [12]
  Average mitotic duration: 1715.1 min
  Median mitotic duration: 1614 min
HeLa H2B-GFP cells [1]; MG132 alone
  Time normal-appearing metaphase plate maintained: over 5 h
HeLa H2B-GFP cells [1]; synchronized, drugs 10 hrs after release, proTAME 3 μM, low-dose MG132
  Median mitotic delay/arrest: 276 min
HeLa H2B-GFP cells [2]; 3 μM proTAME or 10 μM MG132
  Delay in chromosome congression: caused no delay in chromosome congression
HeLa H2B-GFP cells [2]; [13]
  Average chromosome congression time: 21.6 min
  Median chromosome congression time: 21 min
